Test results: US20020155519A1 (priority 1997, published 2002)
“Also recorded” adds a separate entry of the source. Like-named read-outs stand apart in the source and are kept apart here.

Assays:
[1] = system: human blood bacterium (HBB); assay: Resistance of HBB to detergents and disinfectants; format: cell-based; settings: for resistance of HBB to detergent (lysis): 0.1%
HBB = format: in vivo, human; settings: uncontrolled patient trials
Experimental: Experiments have been conducted investigating the correlation of the presence of or increased presence of HBB with the clinical symptoms of three autoimmune diseases, and the results of instituting an antibiotic regimen in patients. […] All patients were cultured repeatedly to determine levels of HBB. The antibiotic treatment regimen was based on antibiotic sensitivities done on a pilot series of cultures and on the known properties of the organism, which clearly requires long-term, continuous treatment to address its very slow growth rate. This approach differs from usual treatment regimens for other bacterial infections. Neither the subjects nor the investigators were blind, and there was no untreated or placebo-treated control group.
Antibiotic treatment consisted of one or more of the following three antibiotic regimens: (1) penicillin V, 500 mg four times a day, plus probenecid, 500 mg four times a day, plus Augmentin 500 mg four times a day; (2) ciprofloxacin, 500 mg three times a day; or (3) isoniazid, 100 mg three times a day. Most patients received a combination of two of the regimens concurrently.
A regime or schedule is continued to optimize effectiveness, balanced against negative effects of treatment.

[2] = system: extracellular exudate and the bacteria (HBB); assay: Lectin binding to HBB exudate (slime) and bacteria; parameters: species or system human blood bacterium (HBB)
Description: The amount of the exudate produced is strongly influenced by or dependent upon the composition of the culture medium. The current medium formulae (L and O) have been designed to reduce slime production. In the original, crude medium, a centrifuged culture may consist of more than 10% of this gel by volume. In the L and O media, older cultures of HBB may develop a thin layer of gel that traps the cells and makes them adherent to the culture flask.

benzalkonium chloride
resistance of HBB to disinfectant ([1]; 1:1000): resistant

Cc1onc(-c2c(Cl)cccc2Cl)c1C(=O)N[C@@H]1C(=O)N2[C@@H]1SC(C)(C)[C@@H]2C(=O)O [dicloxacillin]
clinical response in patients (in words) (HBB): A few patients have done better

CCCCCCCCCCCCOS(=O)(=O)[O-].[Na+] [SDS]
resistance of HBB to detergent (lysis) [1]: does cause lysis

penicillin
clinical response in patients (in words) (HBB): not effective for a sustained response in most patients; also recorded: short-term response in many

CCCCCCCCCCCCN(C)CC(=O)O [n-laurylsarcosine]
resistance of HBB to detergent (lysis) [1]: resist

Oc1c(Cl)cc(Cl)c(Cl)c1Cc1c(O)c(Cl)cc(Cl)c1Cl [hexachlorophene]
resistance of HBB to disinfectant [1]: resistant

wheat germ agglutinin
binding of lectin to exudate and bacteria [2]: bind

NP-40
resistance of HBB to detergent (lysis) [1]: resist

Tween-20
resistance of HBB to detergent (lysis) [1]: resist

Triton X
resistance of HBB to detergent (lysis) [1]: resist

B1: peanut agglutinin: lectin binding other sugars (protein, UniProt P02872 24-273, looked up)
Galactose-binding lectin: AETVSFNFNSFSEGNPAINFQGDVTVLSNGNIQLTNLNKVNSVGRVLYAMPVRIWSSATGNVASFLTSFSFEMKDIKDYDPADGIIFFIAPEDTQIPAGSIGGGTLGVSDTKGAGHFVGVEFDTYSNSEYNDPPTDHVGIDVNSVDSVKTVPWNSVSGAVVKVTVIYDSSTKTLSVAVTNDNGDITTIAQVVDLKAKLPERVKFGFSASGSLGGRQIHLIRSWSFTSTLITTTRRSIDNNEKKIMNMASA
binding of lectin to exudate and bacteria [2]: do not appear to bind
